Laboratory results taken from patent US9000022B2 (Exelixis Patent Company LLC, priority 2005, dated 2015).

Tested on: LXRα and/or LXRβ
Assay: Co-transfection assay (LXRE luciferase reporter, CV-1 cells)
Assay type: cell-based, human
Conditions: tested as described in Example 33; IC50 or EC50 for LXRα and/or LXRβ, isoform not specified; read-out: activity (IC50 or EC50 for LXR)
How it was run: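 CV-1 cells transiently co-transfected with full-length human LXRα or LXRβ plus RXRα, an LXRE×1-Tk-luciferase reporter and a β-galactosidase control. Compounds incubated 20 h at 37 °C (≤1% DMSO; screen at 10 μM final); luciferase read after lysis. EC50/IC50 from 8-point half-log curves (4 wells per point, ≥3 experiments); efficacy relative to a reference agonist high control and DMSO.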

Row | Structure (SMILES) | IC50 or EC50 (potency, activation or inhibition)
1 | CC(C)(O)c1cn(-c2ccc(-c3ccc(CO)c(S(C)(=O)=O)c3)cc2Cl)c(-c2cccc(F)c2Cl)n1 [Example 153, 2-(2-(2-chloro-3-fluorophenyl)-1-(3-chloro-4′-(hydroxymethyl)-3′-(methylsulfonyl)biphenyl-4-yl)-1H-imidazol-4-yl)propan-2-ol] | < 1000 nM
2 | CC(C)(O)c1cn(-c2ccc(-c3ccc(CO)c(S(C)(=O)=O)c3)cc2F)c(-c2c(F)cccc2Cl)n1 [Example 127, 2-(2-(2-chloro-6-fluorophenyl)-1-(3-fluoro-4′-(hydroxymethyl)-3′-(methylsulfonyl)biphenyl-4-yl)-1H-imidazol-4-yl)propan-2-ol] | 1000 to 10000 nM
3 | CC(C)(O)c1cn(-c2ccc(-c3cccc(S(C)(=O)=O)c3)cc2F)c(-c2c(F)cccc2F)n1 [Example 130, 2-(2-(2,6-difluorophenyl)-1-(3-fluoro-3′-(methylsulfonyl)biphenyl-4-yl)-1H-imidazol-4-yl)propan-2-ol] | 1000 to 10000 nM
4 | CCS(=O)(=O)c1cccc(-c2ccc(-n3cc(C(C)(C)O)nc3-c3c(F)cccc3F)c(F)c2)c1 [Example 131, 2-(2-(2,6-difluorophenyl)-1-(3′-(ethylsulfonyl)-3-fluorobiphenyl-4-yl)-1H-imidazol-4-yl)propan-2-ol] | 1000 to 10000 nM
5 | CC(C)(O)c1cn(-c2ccc(-c3cc(S(C)(=O)=O)ccc3Cl)cc2)c(-c2c(Cl)cccc2Cl)n1 [Example 107, 2-(1-(2′-chloro-5′-(methyl-sulfonyl)biphenyl-4-yl)-2-(2,6-dichlorophenyl)-1H-imidazol-4-yl)propan-2-ol] | < 1000 nM
6 | CN(C)c1cccc(F)c1-c1nc(C(C)(C)O)cn1-c1ccc(-c2cccc(S(C)(=O)=O)c2)cc1 [Example 90, 2-(2-(2-(dimethylamino)-6-fluoro-phenyl)-1-(3′-(methylsulfonyl)biphenyl-4-yl)-1H-imidazol-4-yl)propan-2-ol] | < 1000 nM
7 | CCS(=O)(=O)c1cccc(-c2ccc(-n3cc(C(C)(C)O)nc3-c3cccc(F)c3Cl)c(Cl)c2)c1 [Example 152, 2-(1-(3-chloro-3′-(ethyl-sulfonyl)biphenyl-4-yl)-2-(2-chloro-3-fluorophenyl)-1H-imidazol-4-yl)propan-2-ol] | < 1000 nM
8 | C=C(C)c1cn(-c2ccc(-c3cccc(S(C)(=O)=O)c3)cc2)c(-c2c(Cl)cccc2Cl)n1 [Example 78, 2-(2,6-dichlorophenyl)-1-(3′-(methylsulfonyl)biphenyl-4-yl)-4-(prop-1-en-2-yl)-1H-imidazole] | < 1000 nM

Further lines, results first:

Row | IC50 or EC50 (potency, activation or inhibition) | Structure (SMILES)
9 | < 1000 nM | CC(C)(O)c1cn(-c2cccc(-c3cccc(S(C)(=O)=O)c3)c2)c(-c2ccccc2C(F)(F)F)n1 [Example 201, 2-{1-[3′-(methylsulfonyl)biphenyl-3-yl]-2-[2-(trifluoromethyl)phenyl]-1H-imidazol-4-yl}propan-2-ol]
10 | < 1000 nM | CCS(=O)(=O)c1cccc(-c2ccc(-n3cc(C(C)(C)O)nc3-c3ccccc3C(F)(F)F)cc2)c1 [Example 200, 2-{1-[3′-(ethylsulfonyl)biphenyl-4-yl]-2-[2-(trifluoromethyl)phenyl]-1H-imidazol-4-yl}propan-2-ol]
11 | < 1000 nM | Cc1cc(-c2cc(S(C)(=O)=O)ccc2Cl)ccc1-n1cc(C(C)(C)O)nc1Cc1cccc(Cl)c1Cl [Example 468, 2-(1-(2′-chloro-3-methyl-5′-(methylsulfonyl)biphenyl-4-yl)-2-(2,3-dichlorobenzyl)-1H-imidazol-4-yl)propan-2-ol]
12 | 1000 to 10000 nM | COc1ncccc1-c1ccc(-n2cc(C(C)(C)O)nc2-c2ccccc2C(F)(F)F)cc1 [Example 274, 2-(1-{4-[2-(methyloxy)pyridin-3-yl]phenyl}-2-[2-(trifluoro-methyl)phenyl]-1H-imidazol-4-yl)propan-2-ol]
13 | 1000 to 10000 nM | CC(C)(O)c1cn(-c2ccc(-c3cccc(CO)c3)cc2)c(-c2cccc(Cl)c2Cl)n1 [Example 476, 2-(2-(2,3-dichlorophenyl)-1-(3′-(hydroxymethyl)biphenyl-4-yl)-1H-imidazol-4-yl)propan-2-ol]
14 | < 1000 nM | CCS(=O)(=O)c1cccc(-c2ccc(-n3cc(C(C)(C)O)nc3-c3c(C)cccc3Cl)c(Cl)c2)c1 [Example 154, 2-(1-(3-chloro-3′-(ethyl-sulfonyl)biphenyl-4-yl)-2-(2-chloro-6-methylphenyl)-1H-imidazol-4-yl)propan-2-ol]
15 | 1000 to 10000 nM | CC(C)(O)c1cn(-c2ccc(-c3ccc(S(C)(=O)=O)cc3)cc2)c(-c2ccccc2C(F)(F)F)n1 [Example 199, 2-{1-[4′-(methylsulfonyl)biphenyl-4-yl]-2-[2-(trifluoromethyl)phenyl]-1H-imidazol-4-yl}propan-2-ol]
16 | < 1000 nM | CC(C)(O)c1cn(-c2ccc(-c3cccc(S(C)(=O)=O)c3)cc2)c(-c2cccc(F)c2Cl)n1 [Example 383, 2-{2-(2-chloro-3-fluorophenyl)-1-[3′-(methylsulfonyl)biphenyl-4-yl]-1H-imidazol-4-yl}propan-2-ol]
17 | 1000 to 10000 nM | CC(C)(O)c1cn(-c2ccc(-c3ccc(C(N)=O)c(S(C)(=O)=O)c3)cc2Cl)c(-c2c(F)cccc2Cl)n1 [Example 453]
